Source: publication PMC7154662, “Structural Insight into IAPP‐Derived Amyloid Inhibitors and Their Mechanism of Action” (Angewandte Chemie (International Ed. in English), 2020)

What was measured:
Aβ = settings: cited from earlier work
Text: (§1) Single‐site binding events are the classical paradigm for a drug–enzyme complex. Because of the low affinity and the lack of deep binding pockets, this class of inhibitors is not very effective for amyloids (Figure 7, top). Nevertheless, it has been shown that multi‐ligand interactions of tramisprosate with monomeric Aβ42 can prevent amyloid oligo ...

Aβ42 = settings: multi-ligand interactions with monomeric Aβ42; cited from earlier work
Text: as §1

[1] = Saturation transfer difference (STD) NMR; assay type: physicochemical; settings: R3-GI 1.25 mM, control peptide 60 μM, 10 mM sodium phosphate buffer, pH 7.4 (1% v/v HFIP, 10% v/v D2O)

For CSc1ccc(/C=C2/C(C)=C(CC(=O)O)c3cc(F)ccc32)cc1 [sulindac sulfide], the “Effect on Aβ peptide aggregation” value (Aβ) is listed as “accelerates Aβ peptide aggregation”.
For NCCCS(=O)(=O)O [tramisprosate], the “Effect on Aβ42 amyloid oligomer formation” value (Aβ42) is listed as “can prevent amyloid oligomer formation”.
For GVAEPEQDCAVTSGE, the “STD NMR signals” value [1] was “monomeric” and the “STD NMR signals” value ([1]; listed as monomeric peptide used as a control) was “no STD signals”.
